From US12421228B2 (Mirati Therapeutics, Inc., priority 2019, dated 2025)
pIC50: −log10 of the molar value.

Assays:
[1] = target: purified human, His-tagged PRC2 complex (Homo sapiens (Human), UniProt O75530); test: Hot Spot HMT assay, inhibition of PRC2 enzymatic activity; format: biochemical; details: 10 nM PRC2 complex, 0.05 mg/ml core histone H3, 1 μM 3H-SAM, 1 hr at 30° C.; read-out: IC50, Inhibition of PRC2-mediated Enzymatic Activity
Protocol: Ten-point dose-response curves for compounds of the present invention were determined using a Hot Spot HMT assay (Reaction Biology Corp; see Horiuchi et al., Assay Drug Dev Technol. (2013) 4: 227-236 doi: 10.1089/adt.2012.480). The assay uses purified human, His-tagged PRC2 complex, including N-terminal His-tagged EZH2 enzyme, N-terminal Flag-tagged embryonic ectoderm development protein (EED), N-terminal His-tagged suppressor of zeste 12 (SUZ12), N-terminal His-tagged AEBP2, and N-terminal His-tagged RbAp48. In this assay, the transfer of the tritiated methyl group from radiolabeled S-adenosyl methionine (SAM) to purified core histone protein by EZH2 is quantitated after filtration to determine the activity of the core PRC2 complex in the presence and absence of compound.
Briefly, compounds of the present invention were solubilized in DMSO and a series of 10, three-fold serial dilutions were made for each compound in 15% DMSO. The initial starting concentration for the serial dilutions of each compound was 1.0 μM. Control samples lacking compound, EZH2 enzyme or various reaction components also were prepared and processed in parallel with compound test samples. SAH (S-(5-adenosyl)-L-homocysteine) was used as a positive control for assay validation.
An aliquot of each serial dilution of test compound was added to deep 384 well plate using Acoustic Technology instrument (Echo 550, LabCyte) containing reaction buffer (50 mM Tris-HCl (pH 8)), 0.01% Brij35, 1 mM EDTA, 1 mM DTT, 1 mM PMSF and 1% DMSO), 10 nM purified PRC2 complex and 0.05 mg/ml core histone H3 in a 5 μl volume. The reaction was mixed gently and then pre-incubated for 20 min at 30° C. The enzymatic reaction was initiated by adding 1 μM S-Adenosyl-L-[methyl-^3H]methionine and incubated for 1 hr at 30° C. After 1 hr, the reaction product was detected using a filter binding method and the amount of tritiated H3 core histone was quantitated using a scintillation counter. The IC50 value for each compound was determined from each 10-point dose-response curve using GraphPad Prism software and the results for compounds of present invention, including compounds of Formula (I) and Formula (II) are shown in Table 6. Key: A=<100 nM; B=>100 nM−<250 nM; and C=>250 nM.

[2] = test system: PRC2-mediated histone H3 methylation in Pfeiffer cells (EZH2 A677G); test: Tri-Methyl Histone H3 (Lys 27) sandwich ELISA in Pfeiffer cells; format: cell-based; details: Homo sapiens, 96 hours incubation, H3K27me3 ELISA, read-out: IC50 (nM), Inhibition of EZH2-mediated Histone H3 Trimethylation
From the text: The Pfeiffer cell line was established from a […] from a patient having metastatic diffuse large B-cell lymphoma (DLBCL). This cell line expresses a mutant form of the EZH2 enzyme (A677G) that results in enhanced EZH2 activity leading to increased methylation of histone H3 Lys27. Increased trimethylation of histone H3 Lys27 is believed to be implicated in tumorgenesis and poor clinical prognosis in lymphomas (McCabe et al., (2012) Nature 492:108-112).
Inhibition of PRC2-mediated histone H3 methylation by compounds of Formula (I) was measured by ELISA using a Tri-Methyl Histone H3 (Lys 27) Sandwich ELISA Kit (Cell Signaling Tech #7866C) in accordance with the manufacturer's instructions. Briefly, Pfeiffer cells were cultured in RPMI medium supplemented with 10% fetal bovine serum and 1% penicillin and 1% streptomycin in 96 well culture plates at 37° C. to a density of 8000 cells/90 μl/well and the cells were harvested. A series of 3-fold serial dilutions of each test compound of Formula (I) were prepared in RPMI medium and added to the cells at final concentrations ranging from […] to 0.15 nM. The plates were incubated at 37° C. for 96 hours.
After incubation, the cells were pelleted by centrifugation in a pre-cooled 4° C. rotor at 1,100 rpm for 10 min and the supernatant was removed by aspiration. The cell pellet was resuspended in 55 μl of Lysis Buffer (0.4M HCl) and incubated on ice with periodic shaking for 30 minutes. The lysed cells were subjected to centrifugation at 4,200 rpm for 10 min at 4° C. and the supernatant containing acid-soluble proteins was collected and the remainder discarded. The acid-soluble proteins were brought to a neutral pH by the addition of 20 μl of Neutralization Buffer (1 M Sodium phosphate, dibasic (pH 12.5), 2.5 mM DTT and 1 mM PMSF) and the neutralized lysates were analyzed by ELISA.
A 65 μl aliquot of each cell lysate was added to a well of a microwell strip, the microwells were sealed using tape and incubated either at 37° C. for two hours or at 4° C. overnight. After incubation, the tape was removed at the microwells were washed four times using 200 μl of 1× Wash Buffer. To each washed microwell, a 100 μl aliquot of an anti-trimethyl histone H3 Lys27 Detection Antibody solution was added and the microwells were incubated at 37° C. for one hour. The Detection Antibody solution was removed by aspiration and the wells were washed four times each using 200 μl of 1× Wash Buffer.
A 100 μl aliquot of an HRP-linked secondary antibody was added to each well, the wells were sealed with tape and incubated at 37° C. for 30 min. The HRP-linked secondary antibody solution was removed by aspiration and the wells were washed four times using 200 μl of 1× Wash Buffer. A 100 μl aliquot of a TMB substrate was added to each well, the wells were sealed with tape and incubated at 37° C. for 10 min or 25° C. for 30 min. The reaction was stopped by the addition of 100 μl aliquot of a STOP solution and the plate was shaken briefly. The degree of histone H3 trimethylation was determined using a spectrophotometric readout by measuring the absorbance at 450 nm and then calculating the amount of trimethylated histone H3. A=≤100 nM; B=>100 nM−≤500 nM; C=>500 nM and N.D.=not determined.

[3] = test system: Karpas 422 cells (EZH2 Y641N); test: Karpas 422 cell viability (Cell Titre Glo); format: cell-based; details: Homo sapiens, CTG viability, Day 4, Day 7 or Day 11 (time point not given), read-out: IC50 (nM), Inhibiting Proliferation of Cells Expressing an Activating Mutant Form of EZH2
Protocol: Karpas 422 cell line is a human B cell non-Hodgkin's lymphoma cell line established from a patient having DLBCL. This EZH2 heterozygotic cell line expresses a mutant form of EZH2 enzyme (Y641N) that increases histone H3 methylation and this mutation has been implicated in the tumorgenesis of lymphomas, such as DLBCL.
Karpas 422 cells (PHE cat no., 06101702) were cultured in RPMI medium supplemented with 20% fetal bovine serum and 1% penicillin/1% streptomycin and plated at a density of 1000 cells/90 μl/well in 96 well white assay plates. A dose response curve for compounds of the present invention was determined by adding a 10 μl aliquot of stock solutions of varying concentrations of compounds to the same medium in each well, over a concentration range of 10 μM using 3-fold dilutions to a final concentration of 1.5 nM. The plates were incubated at 37° C. for predetermined time periods, Day 4, Day 7, or Day 11, and the viability of the cells was measured using a CTG assay kit (Cell Titre Glo; Promega cat. no G7573) on Day 4 and Day 7 in accordance with the manufacturer's instructions.
For the viability assay for the Day 11 plates, the plates were subjected to centrifugation at 1100 rpm for five minutes on Day 7 and the supernatant was removed by aspiration. The cells were resuspended in 90 μl aliquot of the appropriate growth medium lacking the compound followed by addition of 10 μl of a 10× stock of the same compound at the same concentration. The viability of the Day 11 cells was measured using the CTG assay kit described above in accordance with the manufacturer's instructions. The IC50 values for each compound at each predetermined time point were calculated using Graph pad PRISM software and the results are shown in Table 8. A=≤250 nM; B=[…]−≤500 nM; C=>500 nM and N.D.=not determined.

purified human, His-tagged PRC2 complex, sequence (Q15910 whole entry): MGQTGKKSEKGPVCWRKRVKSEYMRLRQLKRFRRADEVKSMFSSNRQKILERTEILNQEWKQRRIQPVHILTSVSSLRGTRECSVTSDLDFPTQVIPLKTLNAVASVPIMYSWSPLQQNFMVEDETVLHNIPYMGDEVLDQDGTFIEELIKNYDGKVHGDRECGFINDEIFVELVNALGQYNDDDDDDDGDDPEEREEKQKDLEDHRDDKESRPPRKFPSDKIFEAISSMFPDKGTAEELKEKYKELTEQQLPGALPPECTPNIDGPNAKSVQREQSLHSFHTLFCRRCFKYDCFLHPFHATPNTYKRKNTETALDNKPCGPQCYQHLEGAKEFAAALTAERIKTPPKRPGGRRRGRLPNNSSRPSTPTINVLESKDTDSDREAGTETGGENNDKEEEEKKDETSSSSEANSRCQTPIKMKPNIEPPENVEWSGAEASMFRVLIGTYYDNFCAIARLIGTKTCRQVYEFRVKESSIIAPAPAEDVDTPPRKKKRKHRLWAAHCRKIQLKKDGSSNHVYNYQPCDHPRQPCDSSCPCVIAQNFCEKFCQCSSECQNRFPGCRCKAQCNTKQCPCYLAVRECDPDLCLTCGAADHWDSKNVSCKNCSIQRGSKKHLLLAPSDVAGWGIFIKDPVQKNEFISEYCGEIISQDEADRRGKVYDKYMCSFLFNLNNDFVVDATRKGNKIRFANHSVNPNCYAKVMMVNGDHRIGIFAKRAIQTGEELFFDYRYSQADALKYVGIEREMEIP
purified human, His-tagged PRC2 complex, sequence (O75530 whole entry): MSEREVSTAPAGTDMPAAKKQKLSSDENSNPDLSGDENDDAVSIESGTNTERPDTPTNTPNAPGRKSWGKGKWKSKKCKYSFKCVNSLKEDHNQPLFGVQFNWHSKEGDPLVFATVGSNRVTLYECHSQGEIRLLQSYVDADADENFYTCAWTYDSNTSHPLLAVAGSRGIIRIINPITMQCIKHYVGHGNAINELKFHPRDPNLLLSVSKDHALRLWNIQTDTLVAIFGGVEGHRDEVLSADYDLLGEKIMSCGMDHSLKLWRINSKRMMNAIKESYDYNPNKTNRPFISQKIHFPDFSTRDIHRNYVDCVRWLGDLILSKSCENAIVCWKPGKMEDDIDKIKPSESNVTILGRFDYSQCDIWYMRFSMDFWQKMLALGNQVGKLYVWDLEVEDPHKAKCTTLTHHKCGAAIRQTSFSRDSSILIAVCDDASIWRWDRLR
purified human, His-tagged PRC2 complex, sequence (Q15022 whole entry partner): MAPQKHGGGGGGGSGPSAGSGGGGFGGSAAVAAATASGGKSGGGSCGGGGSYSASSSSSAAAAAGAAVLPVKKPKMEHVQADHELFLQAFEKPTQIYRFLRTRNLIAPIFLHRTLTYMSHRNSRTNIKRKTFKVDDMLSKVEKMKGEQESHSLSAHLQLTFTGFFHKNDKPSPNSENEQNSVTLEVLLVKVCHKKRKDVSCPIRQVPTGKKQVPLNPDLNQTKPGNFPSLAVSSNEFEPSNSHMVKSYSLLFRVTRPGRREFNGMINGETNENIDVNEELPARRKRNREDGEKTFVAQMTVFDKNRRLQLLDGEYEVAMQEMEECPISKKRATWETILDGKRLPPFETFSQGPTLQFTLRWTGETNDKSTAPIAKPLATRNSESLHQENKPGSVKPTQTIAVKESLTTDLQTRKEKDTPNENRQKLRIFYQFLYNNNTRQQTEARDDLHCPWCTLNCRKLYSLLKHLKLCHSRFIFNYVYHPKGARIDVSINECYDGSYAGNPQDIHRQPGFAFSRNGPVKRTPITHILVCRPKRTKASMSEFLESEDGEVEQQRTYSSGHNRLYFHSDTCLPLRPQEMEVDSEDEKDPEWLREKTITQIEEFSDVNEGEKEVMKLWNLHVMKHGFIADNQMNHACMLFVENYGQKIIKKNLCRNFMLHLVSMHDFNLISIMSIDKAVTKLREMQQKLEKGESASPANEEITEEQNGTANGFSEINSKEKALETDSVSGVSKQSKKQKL
purified human, His-tagged PRC2 complex, sequence (Q6ZN18 whole entry partner): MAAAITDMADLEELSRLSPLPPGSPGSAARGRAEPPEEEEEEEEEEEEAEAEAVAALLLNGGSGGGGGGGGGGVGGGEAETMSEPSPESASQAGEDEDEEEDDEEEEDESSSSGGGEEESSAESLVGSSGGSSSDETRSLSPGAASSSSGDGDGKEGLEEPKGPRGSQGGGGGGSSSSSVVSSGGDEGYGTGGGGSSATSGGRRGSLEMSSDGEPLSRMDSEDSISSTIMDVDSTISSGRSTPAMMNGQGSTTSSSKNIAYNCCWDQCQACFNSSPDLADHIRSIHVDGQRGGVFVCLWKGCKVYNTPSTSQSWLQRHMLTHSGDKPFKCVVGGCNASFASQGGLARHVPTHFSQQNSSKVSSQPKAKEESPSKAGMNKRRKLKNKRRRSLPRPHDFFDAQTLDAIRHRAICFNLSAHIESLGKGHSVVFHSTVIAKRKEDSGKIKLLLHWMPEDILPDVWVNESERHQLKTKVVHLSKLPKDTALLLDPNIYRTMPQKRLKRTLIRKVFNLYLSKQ
purified human, His-tagged PRC2 complex, sequence (Q09028 whole entry partner): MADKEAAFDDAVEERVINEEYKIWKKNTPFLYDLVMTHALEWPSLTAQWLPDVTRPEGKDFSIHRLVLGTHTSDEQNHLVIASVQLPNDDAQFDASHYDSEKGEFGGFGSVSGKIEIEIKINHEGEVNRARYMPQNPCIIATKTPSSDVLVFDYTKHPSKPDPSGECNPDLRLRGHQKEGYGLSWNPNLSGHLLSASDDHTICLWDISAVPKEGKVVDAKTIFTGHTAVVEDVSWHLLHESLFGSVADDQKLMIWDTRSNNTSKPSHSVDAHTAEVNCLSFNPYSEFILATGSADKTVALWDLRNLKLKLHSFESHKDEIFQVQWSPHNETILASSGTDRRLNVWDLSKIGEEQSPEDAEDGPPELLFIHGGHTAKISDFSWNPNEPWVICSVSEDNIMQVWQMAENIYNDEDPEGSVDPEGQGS

Row | SMILES | pIC50 [1] | IC50 [2] | IC50 [3]
1 | Cc1cc(-c2cnc(NCc3c(F)ccc4c3CCO4)c3cnc(N)cc23)n(C)n1 [Example 50, 4-(1,3-dimethyl-1H-pyrazol-5-yl)-N^1-((5-fluoro-2,3-dihydrobenzofuran-4-yl)methyl)-2,7-naphthyridine-1,6-diamine] | < 6.60 | > 500 nM | > 500 nM
2 | Cc1cc(-c2cnc(NCc3c(F)ccc4c3CCO4)c3cnncc23)ccn1 [Example 12] | > 7.00 | ≤ 100 nM | ≤ 250 nM
3 | Cc1cc(-c2cnc(NCc3c(F)ccc4c3CCO4)c3cnncc23)n(C)n1 [Example 13] | > 7.00 | ≤ 100 nM | ≤ 250 nM
4 | Cc1cc(-c2cnc(NCc3c(F)ccc4c3CCO4)c3nc[nH]c(=O)c23)n(C)n1 [Example 58, 5-(1,3-dimethyl-1H-pyrazol-5-yl)-8-(((5-fluoro-2,3-dihydrobenzofuran-4-yl)methyl)amino)pyrido[3,4-d]pyrimidin-4(3H)-one] | < 6.60 | > 500 nM | > 500 nM
5 | Cc1cc(-c2cnc(NCc3c(F)ccc4c3CCO4)c3c[nH]c(=O)cc23)n(C)n1 [Example 35, 5-(1,3-dimethyl-1H-pyrazol-5-yl)-8-(((5-fluoro-2,3-dihydrobenzofuran-4-yl)methyl)amino)-2,7-naphthyridin-3(2H)-one] | > 7.00 | ≤ 100 nM | ≤ 250 nM
6 | CSc1ncc2c(NCc3c(F)ccc4c3CCO4)ncc(-c3cc(C)nn3C)c2n1 [Example 27, 8-(1,3-dimethyl-1H-pyrazol-5-yl)-N-((5-fluoro-2,3-dihydrobenzofuran-4-yl)methyl)-2-(methylthio)pyrido[4,3-d]pyrimidin-5-amine] | > 7.00 | 100 to 500 nM | ≤ 250 nM
7 | CNCc1ccc(-c2cnc(NCc3c(F)ccc4c3CCO4)c3cnncc23)cc1 [Example 21, N-((5-fluoro-2,3-dihydrobenzofuran-4-yl)methyl)-8-(4-((methylamino)methyl)phenyl)pyrido[3,4-d]pyridazin-5-amine] | 6.60 to 7.00 | 100 to 500 nM | ≤ 250 nM
8 | Cn1nncc1-c1cnc(NCc2c(F)ccc3c2CCO3)c2c[nH]c(=O)cc12 [Example 39] | < 6.60 | > 500 nM | > 500 nM
9 | O=c1cc2c(-c3ccc(CN4CCCC4)cc3)cnc(NCc3c(F)ccc4c3CCO4)c2c[nH]1 [Example 37] | 6.60 to 7.00 | 100 to 500 nM | ≤ 250 nM
10 | Cc1cc(-c2cnc(NCc3c(F)ccc4c3CCO4)c3cnc(OC(C)C)cc23)n(C)n1 [Example 43] | < 6.60 | > 500 nM | > 500 nM
11 | COc1ncc2c(NCc3c(F)ccc4c3CCO4)ncc(-c3cc(C)nn3C)c2n1 [Example 28, 8-(1,3-dimethyl-1H-pyrazol-5-yl)-N-((5-fluoro-2,3-dihydrobenzofuran-4-yl)methyl)-2-methoxypyrido[4,3-d]pyrimidin-5-amine] | > 7.00 | 100 to 500 nM | ≤ 250 nM
12 | CN(C)S(=O)(=O)c1ccc(-c2cnc(NCc3c(F)ccc4c3CCO4)c3cnncc23)cn1 [Example 10] | > 7.00 | ≤ 100 nM | ≤ 250 nM

Continued, values first:

Row | pIC50 [1] | IC50 [2] | IC50 [3] | SMILES
13 | > 7.00 | 100 to 500 nM | 250 to 500 nM | Cc1cc(-c2cnc(NCc3c(F)ccc4c3CCO4)c3cnccc23)n(C)n1 [Example 29, 4-(1,3-dimethyl-1H-pyrazol-5-yl)-N-((5-fluoro-2,3-dihydrobenzofuran-4-yl)methyl)-2,7-naphthyridin-1-amine]
14 | 6.60 to 7.00 | ≤ 100 nM | ≤ 250 nM | Cc1cc(C(=O)N(C)C)ncc1-c1cnc(NCc2c(F)ccc3c2CCO3)c2cnncc12 [Example 4]
15 | > 7.00 | ≤ 100 nM | ≤ 250 nM | Cc1cc(S(C)(=O)=O)ccc1-c1cnc(NCc2c(F)ccc3c2CCO3)c2cnncc12 [Example 3]
16 | 6.60 to 7.00 | 100 to 500 nM | ≤ 250 nM | CN(C)Cc1ccc(-c2cnc(NCc3c(F)ccc4c3CCO4)c3c[nH]c(=O)cc23)cc1 [Example 38]
17 | > 7.00 | ≤ 100 nM | ≤ 250 nM | CN(C)Cc1ccc(-c2cnc(NCc3c(F)ccc4c3CCO4)c3cnncc23)cc1F [Example 14]
18 | < 6.60 | 100 to 500 nM | > 500 nM | Cc1cc(-c2cnc(NCc3c(F)ccc4c3CCO4)c3ccncc23)n(C)n1 [Example 56, 4-(1,3-dimethyl-1H-pyrazol-5-yl)-N-((5-fluoro-2,3-dihydrobenzofuran-4-yl)methyl)-2,6-naphthyridin-1-amine]
19 | > 7.00 | ≤ 100 nM | ≤ 250 nM | Cc1cc(CN(C)C)ccc1-c1cnc(NCc2c(F)ccc3c2CCO3)c2cncnc12 [Example 24]
20 | < 6.60 | 100 to 500 nM | ≤ 250 nM | CN(C)Cc1ccc(-c2cnc(NCc3cccc4c3CCO4)c3cncnc23)cc1 [Example 25]
